Results on four molecules are retold here after US6262075A, “Piperidone tachykinin antagonists” (Pfizer Inc, priority 1996, dated 2001).

Each structure is given as a SMILES string.

One may read the Ki as a dissociation constant, usually derived from enzyme kinetics or from competition with a known ligand.

The target of this assay is T1, human NK2 receptor (Homo sapiens, UniProt P21452).
T1 construct: expressed in transfected cells; host or cells: Chinese hamster ovary cells (membranes)
T1 sequence (P21452 1-398): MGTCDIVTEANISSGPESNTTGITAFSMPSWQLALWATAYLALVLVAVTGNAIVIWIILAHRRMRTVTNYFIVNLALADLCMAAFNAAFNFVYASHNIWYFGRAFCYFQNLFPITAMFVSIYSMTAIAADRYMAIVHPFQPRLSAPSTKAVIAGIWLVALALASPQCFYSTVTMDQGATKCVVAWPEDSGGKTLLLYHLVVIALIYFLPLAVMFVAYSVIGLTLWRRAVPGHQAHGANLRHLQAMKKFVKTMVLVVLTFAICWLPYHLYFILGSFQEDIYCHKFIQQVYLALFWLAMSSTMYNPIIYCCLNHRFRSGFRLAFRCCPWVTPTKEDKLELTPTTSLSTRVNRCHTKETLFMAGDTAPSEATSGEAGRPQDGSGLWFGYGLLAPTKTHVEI
In words: affinity for the human NK2 receptor, competition with [^3 H] NKA for binding to membranes prepared from Chinese hamster ovary cells. To be noted: membranes from Chinese hamster ovary cells expressing the cloned human NK2 receptor, negative logarithm of the molar affinity. On the procedure: The affinity of the compounds of formula (I) and their salts for the human NK2 receptor can be tested in vitro by testing their ability to compete with [^3 H] or [^125 I]NKA (neurokinin A) for binding to membranes prepared from Chinese hamster ovary cells expressing the cloned human NK2 receptor. In this method, washed Chinese hamster ovary cell membranes are prepared as described for the previous method where IM9 cells are used instead. The membranes are incubated (90 min, 25° C.) with [^3 H] or [^125 I]NKA and with a range of concentrations of the test compound. Non-specific binding was determined in the presence of 10 μM NKA.
The affinity of a selection of the compounds of the preceding Examples for the human NK2 receptor was tested in vitro by testing their ability to compete with [^3 H] NKA for binding to membranes prepared from Chinese hamster ovary cells expressing the cloned human NK2 receptor using the method set out on page 26.
The "pKi" measurement is the negative logarithm of the molar affinity of the compound for the receptor as determined in radioligand binding assays using standard protocols.
Molecule `O=C1CCC(CCN2CC(N3CCC(F)CC3)C2)(c2ccc(Cl)c(Cl)c2)CN1CCC1CC1` (stereo not shown) [Example 4] showed a Ki of 2.51 nM.
Regarding `O=C1CC[C@](CCN2CC(N3CCC(F)CC3)C2)(c2ccc(Cl)c(Cl)c2)CN1CC1CCC(F)(F)CC1` [Example 1], the inhibition constant Ki is 0.631 nM.
For `O=C1CCC(CCN2CC(N3CCC(F)CC3)C2)(c2ccc(Cl)c(Cl)c2)CN1C1CCCCC1` (stereo not shown) [Example 2] the value was 0.0501 nM; for `O=C1CCC(CCN2CC(N3CCC(F)CC3)C2)(c2ccc(Cl)c(Cl)c2)CN1C1(C2CC2)CCCC1` (stereo not shown) [Example 3], 0.1 nM.
